According to article PMC8300937, “New azolyl-derivatives as multitargeting agents against breast cancer and fungal infections: synthesis, biological evaluation and docking study” (Journal of Enzyme Inhibition and Medicinal Chemistry, 2021):
Converted amounts (≈) assume the structure as drawn. “And” between values parts separate entries of the source, which are not always exact repeats. Equal values may be shown once. Read-outs that look alike come from different tables or passages of the source.

How the values were obtained:
[1] = test system: C. albicans ATCC 90028; assay: Antifungal broth microdilution (EUCAST), standard strain; assay type: cell-based; conditions: Candida albicans
Experimental: The antifungal activity of the most representative compounds was evaluated versus one ATCC 90028 strain and 15 clinical isolates belonging to the most clinically relevant Candida spp. (C. albicans, C. tropicalis, and C. glabrata). All strains were stored at −80 °C in Sabouraud Broth (Oxoid LTD, Basingstoke, Hampshire, England) with 20% of glycerine until their use. The strains were grown on Sabouraud CAF agar (Thermo Fisher Scientific Waltham, MA, USA), and incubated for 24–48 h at 37 °C. […] The in vitro antifungal activity was determined by broth microdilution method with RPMI 1640 (Sigma-Aldrich. ST Louis, MO, USA) as recommended by EUCAST, and the E. Def 7.3, method document (http://www.eucast.org). […] Each plate included the following controls: (i) inoculum suspension (growth control), (ii) drug-free medium, (iii) medium with drug, and (iv) distilled water (used for the inoculum preparation). Fluconazole was used as a reference drug according to the EUCAST guidelines. The plates were incubated for 24 h at 37 °C, and then read with a plate reader at 530 nm. […] Three independent experiments were performed in triplicate.

[2] = biological target: T1, Recombinant human iNOS (Homo sapiens, UniProt P35228); assay: iNOS inhibition, L-citrulline assay with fluorimetric (HPLC) detection; assay type: biochemical; conditions: for inhibition at 1 µM: read-out: iNOS % inhibition; for iNOS % inhibition: compounds at 1 µM, normalised to 1400 W (positive control, 100% inhibition at 1 μM), triplicate, mean ± SD
T1 construct: purchased Enzo Life Sciences, Inc
Experimental: The injection volume was 5 μL.
Recombinant human iNOS was purchased from Enzo Life Sciences, Inc. (New York, USA).

[3] = biological target: T2, aromatase (CYP19A) (Homo sapiens, UniProt P11511); assay: Aromatase inhibition, fluorimetric assay kit (Aromatase-CYP19A Inhibitor Screening kit, BioVision); assay type: biochemical; conditions: read-out: Aromatase % inhibition
T2 construct: purchased BioVision
T2 sequence (P11511 1-503): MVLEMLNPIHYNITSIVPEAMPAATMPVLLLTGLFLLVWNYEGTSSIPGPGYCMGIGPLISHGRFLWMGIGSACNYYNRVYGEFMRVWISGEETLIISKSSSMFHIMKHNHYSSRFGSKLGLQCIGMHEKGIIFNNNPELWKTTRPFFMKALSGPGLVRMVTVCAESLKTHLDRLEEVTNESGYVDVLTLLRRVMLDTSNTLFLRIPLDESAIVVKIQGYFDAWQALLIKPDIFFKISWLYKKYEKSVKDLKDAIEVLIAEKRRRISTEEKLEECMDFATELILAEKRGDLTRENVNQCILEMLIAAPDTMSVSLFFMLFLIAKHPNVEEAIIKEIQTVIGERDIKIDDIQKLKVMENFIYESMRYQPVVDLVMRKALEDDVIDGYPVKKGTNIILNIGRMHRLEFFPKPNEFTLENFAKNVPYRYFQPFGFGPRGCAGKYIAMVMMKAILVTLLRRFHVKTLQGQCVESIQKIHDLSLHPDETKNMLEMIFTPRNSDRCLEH
Experimental: The aromatase inhibitory activity of the novel compounds was determined using a commercial fluorimetric kit (Aromatase CYP19A Inhibitor Screening kit, BioVision, Milpitas, CA, USA). The assay utilises a fluorogenic aromatase substrate, that is converted into a highly fluorescent metabolite detected in the visible range (Ex/Em = 488/527 nm), ensuring a high signal-to-background ratio with little interference by autofluorescence.

[4] = test system: MCF-7 breast cancer cell line; assay: Cell metabolic activity (MTT assay); assay type: cell-based; conditions: Homo sapiens, read-out: IC50 cell metabolic activity (MTT)
Experimental: (§1) Human breast cancer MCF-7 (HTB-22™) cells were purchased from ATCC® and maintained in Dulbecco’s Modified Eagle Medium (DMEM) high glucose supplemented with 10% of foetal bovine serum (FBS) and 1% of penicillin/streptomycin (all from Gibco-Thermofisher Scientific, MD, USA) at 37 °C and 5% CO2.
Cell metabolic activity of MCF-7 human breast cancer cells was assessed by MTT (3–(4,5-dimethylthiazol-2-yl)-2,5-diphenyltetrazolium bromide) test (Sigma Aldrich, Milan, Italy). Cells were seeded (0.1 × 10^4/well) in a 96-well tissue culture-treated plate (Falcon®, Corning Incorporated, NY, USA) and let them adhere for 24 h. Next, the cell monolayer was incubated in the presence of loading concentrations of compounds 2, 5 and 6 (0–400 µM) diluted in DMSO (final concentration 0.2%) for 24, 48 and 72 h. After the exposure time, cells were incubated with 100 μL/well of MTT (5 mg/mL) 1:10 with fresh growth medium (final concentration 0.5 mg/mL) for 4 h at 37 °C and 5% CO2. Finally, the MTT solution was removed and replaced with 100 µL/well of DMSO. Cells were incubated for an additional 20 min at 37 °C and 5% CO2 and afterward gently swirled for 10 min at room temperature. The optical density was measured at 540 nm by means of a spectrophotometer (Multiskan GO, Thermo Scientific, Monza, Italy). Results were expressed as the percentage of cells in the presence of vehicle (DMSO) set as 100% and each experiment was performed in triplicate (n = 3). Concentration-response curves and IC50 were fitted and calculated with the GraphPad Prism 5.0 (GraphPad Software, San Diego, CA, USA)[27].

[5] = test system: MCF-7 cell line; assay: Cytotoxicity test (lactate dehydrogenase release); assay type: cell-based, human; conditions: MCF-7, 24 h, DMSO control set as 1
Experimental: as §1
After 24 h, cell supernatants were collected from the MTT plate, centrifuged at 450 × g for 4 min and stored on ice. To quantify the cytotoxicity of loading concentrations of compounds 2, 5 and 6 (0–400 µM), the CytoTox 96® Non-Radioactive Cytotoxicity Assay (Promega Corporation, WI, USA) was performed. The CytoTox 96® Assay quantitatively measures lactate dehydrogenase (LDH), a stable cytosolic enzyme released upon cell lysis. The absorbance signal resulting from the conversion of a tetrazolium salt (iodonitrotetrazolium violet; INT) into a red formazan product was measured at 490 and 690 nm (background) with a spectrophotometer (Multiskan GO, Thermo Scientific, Monza, Italy). The results were normalised on MTT absorbances and expressed as fold increases on the LDH released by cultures in the presence of vehicle (DMSO) set as 1.

[6] = Chemical stability in aqueous media at 37 °C (HPLC); assay type: physicochemical
Experimental: Compounds 2 and 5 contain an ester linkage, therefore their chemical stability was evaluated. Phosphate buffer (pH = 7.4), HCl solution (pH = 2.0), NaOH solution (pH = 9.0) were adopted as media. […] Solutions were kept at 37 °C and monitored for 24 h.
A 0.01 M hydrochloric acid buffer (pH 2), as a non-enzymatic simulated gastric fluid (SGF), a 0.01 M phosphate buffer (pH 7.4) as non-enzymatic simulated intestinal fluid (SIF), and a 0.1 mM sodium hydroxide solution (pH 10) were used in this study. The reactions were initiated by adding 0.1 ml of compound stock solution (1 mg/mL in DMSO) to 1.9 ml aqueous buffer solution, in screw-capped vials at 37 ± 0.5 °C. Samples (5 µL) were withdrawn at appropriate intervals, i.e. after 5 min, 1 h, 2 h, 3 h, 4 h, 6 h, 8 h, and then after 24 h incubation time and analysed by HPLC.

[7] = test system: aromatase; conditions: at 1 µM; cited from earlier work
[8] = ATCC90028, C. albicans ATCC 90028, 24 h, ≥50% growth inhibition, read-out: MIC

Structure (SMILES) | MIC [1, 8] | inhibition at 1 µM [2] | inhibition at 1 µM [3] | melting point | further results
O=C(OC(Cc1ccccc1)Cn1ccnc1)c1cccc(C(=O)c2ccccc2)c1 (centres unmarked) [Compound 4, 1-benzyl-2-(1H-imidazol-1-yl)ethyl 3-benzoylbenzoate] | > 64 µg/mL | 47 ± 1.3% | 36 ± 1.2% | 86 to 87 °C | –
N#Cc1ccc(C(c2ccc(C#N)cc2)n2cncn2)cc1 [letrozole, reference compound] | – | – | 100% | – | –
OC(Cc1ccccc1)Cn1ccnc1 (centres unmarked) [Compound 1, 1-(1H-imidazol-1-yl)-3-phenylpropan-2-ol] | – | – | – | – | iNOS % inhibition [2]: complete enzyme inhibition
Cc1ccc(S(=O)(=O)N2CCCC(Cn3cncn3)C2)cc1[N+](=O)[O-] (centres unmarked) [Compound 17, 1-[(4-methyl-3-nitrophenyl)sulphonyl]-3-(1H-1,2,4-triazol-1-ylmethyl)piperidine] | > 64 µg/mL | 39 ± 0.2% | 25 ± 1.3% | 105 to 106 °C | –
N#Cc1ccc(S(=O)(=O)N2CCCC(Cn3cncn3)C2)cc1 (centres unmarked) [Compound 19, 4-{[3-(1H-1,2,4-triazol-1-ylmethyl)piperidin-1-yl]sulphonyl}benzonitrile] | – | 16 ± 0.7% | 48 ± 1.7% | 95 to 96 °C | –
O=[N+]([O-])c1cccc(S(=O)(=O)N2CCCC(Cn3cncn3)C2)c1 (centres unmarked) [Compound 16, 1-[(3-nitrophenyl)sulphonyl]-3-(1H-1,2,4-triazol-1-ylmethyl)piperidine] | > 64 µg/mL | 47 ± 0.3% | 63 ± 3.1% | – | –
N#Cc1ccc(S(=O)(=O)N2CCCC(Cn3cncn3)C2)c(Cl)c1 (centres unmarked) [Compound 18, 3-chloro-4-{[3-(1H-1,2,4-triazol-1-ylmethyl)piperidin-1-yl]sulphonyl}benzonitrile] | > 64 µg/mL | 14 ± 0.2% | 55 ± 1.1% | 81 to 82 °C | –
O=S(=O)(c1ccccc1)N1CCCC(Cn2cncn2)C1 (centres unmarked) [Compound 13, 1-(phenylsulfonyl)-3-(1H-1,2,4-triazol-1-ylmethyl)piperidine] | – | 27 ± 0.4% | 29 ± 1.5% | 72 to 73 °C | –
Cc1ccc(S(=O)(=O)N2CCCC(Cn3cncn3)C2)cc1 (centres unmarked) [Compound 14, 1-[(4-methylphenyl)sulphonyl]-3-(1H-1,2,4-triazol-1-ylmethyl)piperidine] | – | 22 ± 0.5% | 32 ± 1.2% | – | –
COc1cc(C)ccc1NC(=S)OC(Cc1ccccc1)Cn1ccnc1 (centres unmarked) [Compound 8, O-[1-benzyl-2-(1H-imidazol-1-yl)ethyl] (2-methoxy-4-methylphenyl)thiocarbamate] | – | 12 ± 0.1% | 54 ± 0.9% | 120 to 121 °C | –
O=C(NCc1ccccc1)OC(Cc1ccccc1)Cn1ccnc1 (centres unmarked) [Compound 6, 1-benzyl-2-(1H-imidazol-1-yl)ethyl benzylcarbamate] | > 64 µg/mL | 52 ± 0.7% | 72 ± 1.4% | – | IC50 ([4]; MCF7, MCF-7, 24 h exposure): > 400 µM
CC(=O)Nc1ccc(S(=O)(=O)N2CCCC(Cn3cncn3)C2)cc1 (centres unmarked) [Compound 20, N-(4-{[3-(1H-1,2,4-triazol-1-ylmethyl)piperidin-1-yl]sulphonyl}phenyl)acetamide] | – | 0% | 61 ± 2.1% | – | –
CC(=N)NCc1cccc(CN)c1 [1400 W, reference compound] | – | – | – | – | iNOS % inhibition [2]: 100%
OC(Cn1cncn1)(Cn1cncn1)c1ccc(F)cc1F [Fluconazole, reference compound] | 0.25 µg/mL (≈ 0.816 µM) | – | – | – | –
O=C(OC(Cc1ccccc1)Cn1ccnc1)c1cc([N+](=O)[O-])cc([N+](=O)[O-])c1 (centres unmarked) [Compound 5, 1-benzyl-2-(1H-imidazol-1-yl)ethyl 3,5-dinitrobenzoate] | – | 100 ± 1.7% | 82 ± 3.8% | 144 to 145 °C | MIC ([1]; ATCC90028, 24 h): > 64 µg/mL; iNOS % inhibition [2]: complete enzyme inhibition; LDH released, fold increase vs control ([5]; 10 µM (lowest concentration tested)): 1.91 folds; LDH released, fold increase vs control ([5]; concentrations after the IC50 (120 µM)): 6.25 folds and 7.50 folds; Chemical stability in acidic medium ([6]; HCl solution pH = 2.0, 37 °C, monitored for 24 h): stable; Chemical stability in neutral medium ([6]; Phosphate buffer pH = 7.4, 37 °C, monitored for 24 h): stable; half-life at 0.05 mg/mL ([6]; buffer, NaOH solution pH = 9.0, 37 °C, read-out: half-life of hydrolysis in basic medium): 39 min; IC50 ([4]; MCF7, 24 h): 120 µM; IC50 ([4]; MCF7, 48 h): 82.5 µM; IC50 ([4]; MCF7, 72 h): 68.8 µM
O=C(OC(Cc1ccccc1)Cn1ccnc1)c1ccc2ccccc2c1 (centres unmarked) [Compound 3, 1-benzyl-2-(1H-imidazol-1-yl)ethyl 2-naphthoate] | 64 µg/mL (≈ 180 µM) | 0% | 13 ± 0.5% | 71 to 72 °C | –
COc1ccc(S(=O)(=O)N2CCCC(Cn3cncn3)C2)c(OC)c1 (centres unmarked) [Compound 15, 1-[(2,4-dimethoxyphenyl)sulphonyl]-3-(1H-1,2,4-triazol-1-ylmethyl)piperidine] | – | 18 ± 0.1% | 62 ± 2.8% | – | –
COc1ccc(NC(=S)OC(Cc2ccccc2)Cn2ccnc2)c(OC)c1 (centres unmarked) [Compound 7, O-[1-benzyl-2-(1H-imidazol-1-yl)ethyl] (2,4-dimethoxyphenyl)thiocarbamate] | > 64 µg/mL | 7 ± 0.08% | 15 ± 0.3% | – | –
O=C(NCc1ccccc1)OC(Cn1ccnc1)c1ccccc1 (centres unmarked) [Compound 13a] | – | – | – | – | aromatase % inhibition [7]: 81%
